# From US20200131270A1, “COMBINATION USE OF INHIBITOR TARGETING PD-1/PD-L1 AND COX-2 INHIBITOR” (priority 2017, published 2020)
# Columns and labels:
# [1] = system: PBMCs derived from uninfected cattle; experiment: PBMC culture under anti-CD3/anti-CD28 stimulation: cell proliferation (CFSE) and cytokine production (ELISA); conditions: 3 days
# BLV provirus = format: cell-based, cattle
# canine PBMCs = experiment: Cytokine production from canine PBMCs stimulated with SEB and anti-CD28 (ELISA); format: cell-based; conditions: PGE2 2.5 μM; SEB + anti-CD28, 3 days
# [2] = system: PBMCs derived from uninfected cattle; experiment: mRNA expression in bovine PBMCs (real-time PCR); format: cell-based
# Description: Using the synthesized cDNA as a template, real-time PCR was performed with LightCycler480 System II (Roche) in a 10 μl reaction solution containing SYBR Premix DimerEraser (TaKaRa) and 3 pmol each of the primers specific to individual genes. Then, changes in expression levels of individual genes were observed. After 45 cycles of thermal denaturation, annealing and extension, the temperature was raised from 65° C. to 95° C. at 0.1° C./sec for melting curve analysis. The melting temperatures of amplified products were measured to confirm specificity. For each sample, expression levels of genes ACTB and GAPDH were quantified as internal standards. […] Then, real-time PCR was performed using PDL1 specific primers.
# [3] = system: PBMCs derived from uninfected cattle; experiment: PD-L1 protein expression in bovine PBMCs (flow cytometry); format: cell-based; conditions: PGE2 added, 24 hours
# [4] = PGE2 25 nM, 250 nM and 2,500 nM
smiles,measurement,setting,value
"CCCCC[C@H](O)/C=C/[C@H]1[C@H](O)CC(=O)[C@@H]1C/C=C\CCCC(=O)O [PGE2, prostaglandin E2]",IFN-γ production,[1]; [4],significantly inhibited
same,proliferation of CD4^+ cells,[1]; [4],significantly inhibited
same,proliferation of CD8^+ cells,[1]; [4],significantly inhibited
same,TNF-α production,"[1]; PGE2 2,500 nM",significantly inhibited
same,BLV provirus load in PBMCs,BLV provirus,increase significantly
same,IFN-γ production from canine PBMCs,canine PBMCs,significantly decreased
same,IL-2 production from canine PBMCs,canine PBMCs,significantly decreased
same,expression level of Foxp3,"[2]; PGE2 2,500 nM, 3 days",significantly increased
same,expression level of IFNγ,"[2]; PGE2 2,500 nM, 3 days",significantly decreased
same,expression level of IL-2,"[2]; PGE2 2,500 nM, 3 days",significantly decreased
same,expression level of IL-10,"[2]; PGE2 2,500 nM, 3 days",significantly increased
same,expression level of STAT3,"[2]; PGE2 2,500 nM, 3 days",significantly increased
same,expression level of TGFβ1,"[2]; PGE2 2,500 nM, 3 days",significantly increased
same,expression level of TNFα,"[2]; PGE2 2,500 nM, 3 days",significantly decreased
same,expression of PD-L1 mRNA,"[2]; PGE2 added, 24 hours",significantly increased
same,expression of PD-L1 protein,[3],significantly increased
